In brackets after ≈: the same amount, converted by molar mass. Where a SMILES comes first, the peptide text is derived from it. Bridges are numbered along the chain shown (N, C = ends). [ ]: non-standard residue; d: D form. The star is where a group is joined. ξ: configuration not given here. Octanoyl(7-Me) = CC(C)CCCCCC(=O)*; Hexanoyl(4ξ-Me) = CCC(C)CCC(=O)*; dOrn = NCCC[C@@H](N)C(=O)O; Orn = NCCC[C@H](N)C(=O)O; OAll = C=CCO*
Experiments:
S. aureus USA300 = format: cell-based, Staphylococcus aureus; details: microbroth dilution per CLSI, MHB, 18 h at 37 °C, visual inspection, three technical replicates
How it was run: (§1)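 CLSI broth microdilution in MHB, polypropylene plates; log-phase bacteria (OD600 ~0.5, grown in TSB, with kanamycin for the E. coli ATCC 25922 MCR-1 strain) added at 2 × 10^5 CFU/mL. Read visually after 18 h at 37 °C with shaking; MIC = lowest concentration preventing visible growth, three technical replicates.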

P. aeruginosa PAO1 = format: cell-based, Pseudomonas aeruginosa; details: microbroth dilution per CLSI, MHB, 18 h at 37 °C, visual inspection, three technical replicates
How it was run: as §1

K. pneumoniae ATCC 13883 = format: cell-based, Klebsiella pneumoniae; details: microbroth dilution per CLSI, MHB, 18 h at 37 °C, visual inspection, three technical replicates
How it was run: as §1

E. coli (MCR-1) = format: cell-based, Escherichia coli; details: microbroth dilution per CLSI, MHB, 18 h at 37 °C, visual inspection, three technical replicates, E. coli 25922 carrying mcr-1
How it was run: as §1

E. coli ATCC 25922 = format: cell-based, Escherichia coli; details: for Antibacterial activity (MIC) E. coli ATCC 25922: microbroth dilution per CLSI, MHB, 18 h at 37 °C, visual inspection, three technical replicates
How it was run: as §1

A. baumannii ATCC 17961 = format: cell-based, Acinetobacter baumannii; details: microbroth dilution per CLSI, MHB, 18 h at 37 °C, visual inspection, three technical replicates
How it was run: as §1

SMILES | Antibacterial activity (MIC) S. aureus USA300 (S. aureus USA300) [µg/mL] | Antibacterial activity (MIC) P. aeruginosa PAO1 (P. aeruginosa PAO1) [µg/mL] | Antibacterial activity (MIC) K. pneumoniae ATCC 13883 (K. pneumoniae ATCC 13883) [µg/mL] | Antibacterial activity (MIC) E. coli (MCR-1) (E. coli (MCR-1)) [µg/mL] | Antibacterial activity (MIC) E. coli ATCC 25922 (E. coli ATCC 25922) [µg/mL] | Antibacterial activity (MIC) A. baumannii ATCC 17961 (A. baumannii ATCC 17961) [µg/mL] | MIC (µg/mL) against E. coli (ATCC 25922) (E. coli ATCC 25922; (Supplement 2)) [µg/mL]
CC[C@H](C)[C@H](NC(=O)[C@@H](NC(=O)[C@H](Cc1c[nH]c2ccccc12)NC(=O)[C@@H](CCCN)NC(=O)CNC(=O)[C@H](CCCN)NC(=O)[C@@H](CCCN)NC(=O)[C@@H](Cc1c[nH]c2ccccc12)NC(=O)[C@@H](Cc1ccc(O)cc1)NC(=O)[C@@H](CO)NC(=O)CCCCCC(C)C)[C@@H](C)O)C(=O)N[C@@H](C)C(=O)NCC(=O)NCC(N)=O [LL(Ala11)-NH2 (39)] ({Octanoyl(7-Me)}-[dS][dY][dW][dOrn][Orn]G[dOrn]WTIAGG-NH2) | >32 | 4 | 8 | 8 | 8 | 8 | –
CC[C@H](C)[C@H](NC(=O)[C@@H](NC(=O)[C@H](Cc1c[nH]c2ccccc12)NC(=O)[C@@H](CCCN)NC(=O)CNC(=O)[C@H](CCCN)NC(=O)[C@@H](CCCN)NC(=O)[C@@H](Cc1c[nH]c2ccccc12)NC(=O)[C@@H](C)NC(=O)[C@@H](CO)NC(=O)CCCCCC(C)C)[C@@H](C)O)C(=O)N[C@@H](CC(N)=O)C(=O)NCC(=O)NCC(N)=O [LL(D-Ala2)-NH2 (30)] ({Octanoyl(7-Me)}-[dS][dA][dW][dOrn][Orn]G[dOrn]WTINGG-NH2) | >32 | 16 | >32 | 32 | 32 | >32 | –
C=CCOC(=O)CC[C@H](NC(=O)[C@H](Cc1c[nH]c2ccccc12)NC(=O)[C@@H](CCCN)NC(=O)CNC(=O)[C@H](CCCN)NC(=O)[C@@H](CCCN)NC(=O)[C@@H](Cc1c[nH]c2ccccc12)NC(=O)[C@@H](Cc1ccc(O)cc1)NC(=O)[C@@H](CC(N)=O)NC(=O)CCC(C)CC)C(=O)N[C@H](C(=O)NCC(N)=O)[C@@H](C)CC (stereo partly shown) [Δ12LB (Glu[OAll]9)-NH2 (62)] ({Hexanoyl(4ξ-Me)}-[dN][dY][dW][dOrn][Orn]G[dOrn]WE(OAll)IG-NH2) | >32 | 2 | 4 | 8 | 4 | 8 | 4 (≈ 2.64 µM)
CC[C@H](C)[C@@H]1NC(=O)[C@@H](NC(=O)[C@H](Cc2c[nH]c3ccccc23)NC(=O)[C@@H](CCCN)NC(=O)CNC(=O)[C@H](CCCN)NC(=O)[C@@H](CCCN)NC(=O)[C@@H](Cc2c[nH]c3ccccc23)NC(=O)[C@@H](Cc2ccc(O)cc2)NC(=O)[C@@H](CO)NC(=O)CCCCCC(C)C)[C@@H](C)OC(=O)CNC(=O)CNC(=O)[C@H](CC(N)=O)NC1=O [Lat (2), laterocidine] ({Octanoyl(7-Me)}-[dS][dY][dW][dOrn][Orn]G[dOrn]WTINGG; ester 9-C) | >32 | 4 | 2 to 4 | 2 | 2 | 2 | –
CC[C@H](C)[C@H](NC(=O)[C@@H](NC(=O)[C@H](Cc1c[nH]c2ccccc12)NC(=O)[C@@H](CCCN)NC(=O)CNC(=O)[C@H](CCCN)NC(=O)[C@@H](CCCN)NC(=O)[C@@H](Cc1c[nH]c2ccccc12)NC(=O)[C@@H](Cc1ccc(O)cc1)NC(=O)[C@@H](CO)NC(=O)CCCCCC(C)C)[C@@H](C)O)C(=O)N[C@@H](CC(N)=O)C(=O)NCC(N)=O [Δ13LL-NH2 (8)] ({Octanoyl(7-Me)}-[dS][dY][dW][dOrn][Orn]G[dOrn]WTING-NH2) | >32 | 4 | 4 to 8 | 8 | 8 | 4 | –

Source: article PMC10150354, “Linearization of the Brevicidine and Laterocidine Lipopeptides Yields Analogues That Retain Full Antibacterial Activity” (Journal of Medicinal Chemistry, 2023)
